Patent publication US20200188475A1, “REAGENTS FOR INDUCING AN IMMUNE RESPONSE” (Dana-Farber Cancer Institute, Inc., priority 2007, published 2020)
Ends that are not written are not given here. * marks the point of attachment. R1 = nitroxide spin-labeled side chain, CC1(C)C=C(CS*)C(C)(C)N1[O]

Columns and labels:
[1] = target: MPER segment 662-683 of HXB2 strain HIV-1 gp160 (HIV-1 (HXB2 strain)); test: ITC at 25 °C, MPER peptide with virion membrane-like liposomes injected into 4E10 Fab
[2] = target: MPER segment 662-683 of HXB2 strain HIV-1 gp160 (HIV-1 (HXB2 strain)); test: SPR, intact IgG over membrane-bound MPER, global fit with a two-step conformational change model
[3] = Stability of MPER adsorption to lipid-enveloped PLGA microparticles in serum-containing medium (confocal imaging); assay type: physicochemical; conditions: culture medium containing 10% FCS in the presence of DCs, FITC-tagged MPER, qualitative; preliminary studies
liposomes = test: MPER binding to liposomes as a function of membrane composition; conditions: liposomes of DMPC, 4:1 DOPC:DOPG or HIV membrane-mimicking composition; preliminary studies
[4] = Aqueous solubility of the MPER segment; assay type: physicochemical
4E10 antibody = test: SPR (BIAcore) 4E10 binding to MPER variant or spin-labeled peptides on liposomes; conditions: for 4E10 antibody binding to the spin-labeled MPER peptide: membrane-bound spin-labeled peptides, POPC/POPG liposomes; for decrease of 4E10 binding to the lipid-embedded MPER: mutation of N671 to residues occurring in other viral strains

Substance: 4E10 antigen-binding fragment (Fab)
- Kd [1]: 1000 nM
- enthalpy change [1]: -25 kcal/mol
- entropic energy change (-TDS) [1]: 16.9 kcal/mol

Substance: 4E10 broadly neutralizing anti-gp41 antibody (intact IgG)
- Kd [2]: 10 nM

Substance: ELDKWASLWNWFNITNWLWYIK [MPER]
- stability of MPER adsorption [3]: stably adsorbed to lipid-enveloped PLGA microparticles for at least a few hours
- order of MPER binding affinity by liposome composition (liposomes): DMPC<DOPC/DOPG<HIV mimic
- solubility in aqueous solutions [4]: can only be solubilized in aqueous solutions in the presence of detergents or lipid vesicles

Substance: F673: MPER 662-683 peptide with cysteine substitution and nitroxide spin label R1 at position F673 (ELDKWASLWNWC(R1)NITNWLWYIK)
- 4E10 antibody binding to the spin-labeled MPER peptide (4E10 antibody): completely abolished

Substance: N671D: HXB2 MPER single amino acid variant, N671 to D (ELDKWASLWDWFNITNWLWYIK)
- decrease of 4E10 binding to the lipid-embedded MPER (4E10 antibody): severely

Substance: N671G: HXB2 MPER single amino acid variant, N671 to G (ELDKWASLWGWFNITNWLWYIK)
- decrease of 4E10 binding to the lipid-embedded MPER (4E10 antibody): severely

Substance: N671S: HXB2 MPER single amino acid variant, N671 to S (ELDKWASLWSWFNITNWLWYIK)
- decrease of 4E10 binding to the lipid-embedded MPER (4E10 antibody): moderately

Substance: N671T: HXB2 MPER single amino acid variant, N671 to T (ELDKWASLWTWFNITNWLWYIK)
- decrease of 4E10 binding to the lipid-embedded MPER (4E10 antibody): severely

Substance: T676: MPER 662-683 peptide with cysteine substitution and nitroxide spin label R1 at position T676 (ELDKWASLWNWFNIC(R1)NWLWYIK)
- 4E10 antibody binding to the spin-labeled MPER peptide (4E10 antibody): completely abolished

Substance: W672: MPER 662-683 peptide with cysteine substitution and nitroxide spin label R1 at position W672 (ELDKWASLWNC(R1)FNITNWLWYIK)
- 4E10 antibody binding to the spin-labeled MPER peptide (4E10 antibody): completely abolished
